Measured values taken from patent publication US20230203098A1, “HUMAN TRANSFERRIN RECEPTOR BINDING PEPTIDE” (priority 2020, published 2023).
pKd: −log10 of the molar value. Like-named read-outs stand apart in the source and are kept apart here. One block for each compound: values may come before it. Where a SMILES comes first, the peptide text is derived from it. Bridges are numbered along the chain shown (N, C = ends). [ ]: non-standard residue; d: D form. The star is where a group is joined. PEG12 = NCCOCCOCCOCCOCCOCCOCCOCCOCCOCCOCCOCCOCCC(=O)O; NMePhe(3-Cl) = CN[C@@H](Cc1cccc(Cl)c1)C(=O)O; NMeW = CN[C@@H](Cc1c[nH]c2ccccc12)C(=O)O; NMeY = CN[C@@H](Cc1ccc(O)cc1)C(=O)O; NMeF = CN[C@@H](Cc1ccccc1)C(=O)O; Chg = N[C@H](C(=O)O)C1CCCCC1; X1 = CN[C@H](CCCCN*)C(=O)O

Target: transferrin receptor (hTfR) (Homo sapiens, UniProt P02786)
Sequence (P02786 whole entry): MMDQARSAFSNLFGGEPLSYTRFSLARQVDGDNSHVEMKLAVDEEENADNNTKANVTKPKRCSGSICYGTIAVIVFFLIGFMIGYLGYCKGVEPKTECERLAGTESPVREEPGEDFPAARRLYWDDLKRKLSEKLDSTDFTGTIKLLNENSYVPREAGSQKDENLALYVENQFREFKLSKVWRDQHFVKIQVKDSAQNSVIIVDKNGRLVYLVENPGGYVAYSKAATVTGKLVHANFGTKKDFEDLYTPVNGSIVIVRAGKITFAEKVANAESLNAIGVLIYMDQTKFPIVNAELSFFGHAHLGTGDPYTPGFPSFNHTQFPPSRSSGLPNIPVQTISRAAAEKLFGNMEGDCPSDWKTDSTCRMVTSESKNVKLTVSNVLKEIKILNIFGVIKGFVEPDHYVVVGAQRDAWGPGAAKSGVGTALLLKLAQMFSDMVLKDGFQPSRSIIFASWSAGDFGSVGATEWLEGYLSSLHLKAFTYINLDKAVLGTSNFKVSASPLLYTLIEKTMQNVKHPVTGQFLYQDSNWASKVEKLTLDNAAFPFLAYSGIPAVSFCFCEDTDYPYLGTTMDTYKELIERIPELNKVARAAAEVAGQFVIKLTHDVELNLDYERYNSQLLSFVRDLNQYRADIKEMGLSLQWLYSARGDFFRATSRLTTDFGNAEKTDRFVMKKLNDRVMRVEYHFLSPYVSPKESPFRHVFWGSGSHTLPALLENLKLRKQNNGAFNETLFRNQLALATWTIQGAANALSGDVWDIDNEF
Assay: Intermolecular interaction evaluation test between transferrin receptor (hTfR) and peptide by surface plasmon resonance (SPR)
Type: binding
Procedure, shortened: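 hTfR captured on Ni-NTA chip then amine-coupled; peptides run single-cycle kinetics at 5–100 nM in 10 mM HEPES pH 8.0, 150 mM NaCl, 0.05% Tween 20, 0.1% BSA, 1.0% DMSO. KD from least-squares curve fitting of sensorgrams.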

[1] = surface plasmon resonance, peptide vs hTfR, read-out: KD value, hTfR binding by SPR (class symbol)
[2] = binding to hTfR by SPR, Table 2 peptides, read-out: KD value (SPR) class
[3] = SPR, peptides, linker-added peptides and FITC conjugates, Patent ID 203-230, read-out: KD
[4] = surface plasmon resonance, hTfR, read-out: KD value for hTfR by SPR (class symbol)

Structure (SMILES): CC[C@H](C)[C@@H]1NC(=O)[C@H](Cc2ccc(O)cc2)NC(=O)[C@H](Cc2ccc(O)cc2)NC(=O)[C@H](CC(N)=O)NC(=O)[C@H](Cc2c[nH]c3ccccc23)N(C)C(=O)[C@H](C(C)C)NC(=O)[C@H](Cc2ccccc2)N(C)C(=O)[C@H](C(C)C)NC(=O)[C@H](C)NC(=O)CSC[C@@H](C(N)=O)NC(=O)[C@H](Cc2ccc(O)cc2)N(C)C(=O)[C@H](Cc2ccc(O)cc2)NC(=O)[C@H](CCCNC(=N)N)NC(=O)[C@H](CCCCN)NC(=O)[C@H]([C@@H](C)CC)NC1=O [compound 300]
pKd [1]: 7.00 to 9.00

Structure (SMILES): CC[C@H](C)[C@@H]1NC(=O)[C@H](Cc2ccc(OC)cc2)NC(=O)[C@H](Cc2ccc(O)cc2)NC(=O)[C@H](CC(N)=O)NC(=O)[C@H](Cc2c[nH]c3ccccc23)N(C)C(=O)[C@H](C(C)C)NC(=O)[C@H](Cc2cccc(Cl)c2)N(C)C(=O)[C@H](C(C)C)NC(=O)[C@H](C)NC(=O)CSC[C@@H](C(=O)NCC(=O)NCC(=O)NCC(=O)NCC(=O)N[C@@H](CO)C(=O)N[C@@H](CO)C(=O)N[C@@H](CS)C(N)=O)NC(=O)[C@H](Cc2ccc(O)cc2)N(C)C(=O)[C@H](Cc2ccccc2)NC(=O)[C@@H](CCCNC(=N)N)NC(=O)[C@H](CCC(=O)O)NC(=O)[C@H]([C@@H](C)CC)NC1=O [compound 348]
pKd [1]: 6.00 to 7.00

Structure (SMILES): CC[C@H](C)[C@@H]1NC(=O)[C@H](Cc2ccc(OC)cc2)NC(=O)[C@H](Cc2ccc(O)cc2)NC(=O)[C@H](CC(N)=O)NC(=O)[C@H](Cc2c[nH]c3ccccc23)N(C)C(=O)[C@H](C(C)C)NC(=O)[C@H](Cc2cccc(Cl)c2)N(C)C(=O)[C@H](C(C)C)NC(=O)[C@H](C)NC(=O)CSC[C@@H](C(=O)NCC(=O)NCC(=O)NCC(=O)NCC(=O)N[C@@H](CO)C(=O)N[C@@H](CO)C(=O)N[C@@H](CS)C(N)=O)NC(=O)[C@H](Cc2ccc(O)cc2)N(C)C(=O)[C@H](Cc2ccccc2)NC(=O)[C@@H](CCCNC(=N)N)NC(=O)[C@H](CN)NC(=O)[C@H]([C@@H](C)CC)NC1=O [compound 367]
pKd: 7.00 to 9.00

Structure (SMILES): CC[C@H](C)[C@@H]1NC(=O)[C@H](C2CCCCC2)NC(=O)[C@H](Cc2ccc(O)cc2)NC(=O)[C@H](Cc2ccc(O)cc2)NC(=O)[C@H](CC(N)=O)NC(=O)[C@H](Cc2c[nH]c3ccccc23)NC(=O)[C@H](C2CCCCC2)NC(=O)[C@H](Cc2ccccc2)N(C)C(=O)[C@H](C(C)C)NC(=O)[C@H](C)NC(=O)CSC[C@@H](C(N)=O)NC(=O)[C@H](Cc2ccc(O)cc2)N(C)C(=O)[C@H](Cc2ccc(O)cc2)NC(=O)[C@H](CCCNC(=N)N)NC(=O)[C@H](CCCNC(=N)N)NC1=O [compound 267] ({CH2CO}-AV[NMeF][Chg]WNYY[Chg]IRRY[NMeY]C-NH2; thioether N-15)
pKd [2]: 6.00 to 7.00

Structure (SMILES): CC[C@H](C)[C@@H]1NC(=O)[C@H](C2CCCCC2)NC(=O)[C@H](Cc2ccc(O)cc2)NC(=O)[C@H](Cc2ccc(O)cc2)NC(=O)[C@H](CC(N)=O)NC(=O)[C@H](Cc2c[nH]c3ccccc23)NC(=O)[C@H](C2CCCCC2)NC(=O)[C@H](Cc2ccccc2)N(C)C(=O)[C@H](C(C)C)NC(=O)[C@H](C)NC(=O)CSC[C@@H](C(=O)NCCOCCOCCOCCOCCOCCOCCOCCOCCOCCOCCOCCOCCC(N)=O)NC(=O)[C@H](Cc2ccc(O)cc2)N(C)C(=O)[C@H](Cc2ccc(O)cc2)NC(=O)[C@H](CCCNC(=N)N)NC(=O)[C@H](CCCNC(=N)N)NC1=O [compound 266] ({CH2CO}-AV[NMeF][Chg]WNYY[Chg]IRRY[NMeY]C[PEG12]-NH2; thioether N-15)
pKd [2]: 6.00 to 7.00

Structure (SMILES): CC[C@H](C)[C@@H]1NC(=O)[C@H](Cc2ccc(O)cc2)NC(=O)[C@H](Cc2ccc(O)cc2)NC(=O)[C@H](CC(N)=O)NC(=O)[C@H](Cc2c[nH]c3ccccc23)NC(=O)[C@H](C(C)C)NC(=O)[C@H](Cc2ccccc2)N(C)C(=O)[C@H](C(C)C)NC(=O)[C@H](C)NC(=O)CSC[C@@H](C(=O)NCC(=O)NCC(=O)N[C@@H](CO)C(=O)N[C@@H](CCCCNC(=O)C2CCC(CN3C(=O)C=CC3=O)CC2)C(N)=O)NC(=O)[C@H](Cc2ccc(O)cc2)N(C)C(=O)[C@H](Cc2ccc(O)cc2)NC(=O)[C@H](CCCNC(=N)N)NC(=O)[C@H](CCCNC(=N)N)NC(=O)[C@H]([C@@H](C)CC)NC1=O (stereo partly drawn) [compound 194]
pKd (hTfR binding by SPR, hTfR No. 894 variant peptides, linker-added peptides and payload conjugates (Table 2), read-out: KD value obtained from the SPR measurement): 7.00 to 9.00

Structure (SMILES): CC[C@H](C)[C@@H]1NC(=O)[C@H](Cc2ccc(O)cc2)NC(=O)[C@H](Cc2ccc(O)cc2)NC(=O)[C@H](CC(N)=O)NC(=O)[C@H](Cc2c[nH]c3ccccc23)NC(=O)[C@H](C(C)C)NC(=O)[C@H](Cc2ccccc2)N(C)C(=O)[C@H](C(C)C)NC(=O)[C@H](C)NC(=O)CSC[C@@H](C(=O)N[C@H](CCC(=O)O)C(N)=O)NC(=O)[C@H](Cc2ccc(O)cc2)N(C)C(=O)[C@H](Cc2ccc(O)cc2)NC(=O)[C@H](CCCNC(=N)N)NC(=O)[C@H](C)NC(=O)[C@H]([C@@H](C)CC)NC1=O [compound 291] ({CH2CO}-AV[NMeF]VWNYYIIARY[NMeY]C[dE]-NH2; thioether N-15)
pKd [1]: 7.00 to 9.00

Structure (SMILES): CC[C@H](C)[C@@H]1NC(=O)[C@H](Cc2ccc(OC)cc2)NC(=O)[C@H](Cc2ccc(O)cc2)NC(=O)[C@H](CC(N)=O)NC(=O)[C@H](Cc2c[nH]c3ccccc23)N(C)C(=O)[C@H](C(C)C)NC(=O)[C@H](Cc2cccc(Cl)c2)N(C)C(=O)[C@H](C(C)C)NC(=O)[C@H](C)NC(=O)CSC[C@@H](C(=O)N[C@H](CCC(=O)O)C(=O)N[C@H](CCC(=O)O)C(N)=O)NC(=O)[C@H](Cc2ccc(O)cc2)N(C)C(=O)[C@H](Cc2ccccc2)NC(=O)[C@@H](CCCNC(=N)N)NC(=O)C(C)(C)NC(=O)[C@H]([C@@H](C)CC)NC1=O [compound 356]
pKd [4]: 7.00 to 9.00

Structure (SMILES): CC[C@H](C)[C@@H]1NC(=O)[C@H](Cc2ccc(O)cc2)NC(=O)[C@H](Cc2ccc(O)cc2)NC(=O)[C@H](CC(N)=O)NC(=O)[C@H](Cc2c[nH]c3ccccc23)NC(=O)[C@H](C(C)C)NC(=O)[C@H](Cc2ccccc2)NC(=O)[C@H](C(C)C)NC(=O)[C@H](CCC(=O)O)NC(=O)CSC[C@@H](C(=O)NCCOCCOCCOCCOCCOCCOCCOCCOCCOCCOCCOCCOCCC(=O)NN)NC(=O)[C@H](Cc2ccc(O)cc2)N(C)C(=O)[C@H](Cc2ccc(O)cc2)NC(=O)[C@H](CCCNC(=N)N)NC(=O)[C@H](CCCNC(=N)N)NC(=O)[C@H]([C@@H](C)CC)NC1=O [compound 218]
pKd [3]: 7.00 to 9.00

Further lines, results first:

pKd [1]: 7.00 to 9.00
Structure (SMILES): CC[C@H](C)[C@@H]1NC(=O)[C@H](Cc2ccc(OC)cc2)NC(=O)[C@H](Cc2ccc(O)cc2)NC(=O)[C@H](CC(N)=O)NC(=O)[C@H](Cc2c[nH]c3ccccc23)N(C)C(=O)[C@H](C(C)C)NC(=O)[C@H](Cc2cccc(Cl)c2)N(C)C(=O)[C@H](C(C)C)NC(=O)[C@H](C)NC(=O)CSC[C@@H](C(N)=O)NC(=O)[C@H](Cc2ccc(O)cc2)N(C)C(=O)[C@H](Cc2ccccc2)NC(=O)[C@@H](CCCNC(=N)N)NC(=O)[C@H](CCCNC(=N)N)NC(=O)[C@H](CCC(=O)NCCCC[C@@H](NC)C(=O)O)NC1=O [compound 346] ({CH2CO}-AV[NMePhe(3-Cl)]V[NMeW]NYY(Me)IE(X1)R[dR]F[NMeY]C-NH2; thioether N-15)

pKd [3]: 7.00 to 9.00
Structure (SMILES): CC[C@H](C)[C@@H]1NC(=O)[C@H](Cc2ccc(OC)cc2)NC(=O)[C@H](Cc2ccc(O)cc2)NC(=O)[C@H](CC(N)=O)NC(=O)[C@H](Cc2c[nH]c3ccccc23)N(C)C(=O)[C@H](C(C)C)NC(=O)[C@H](Cc2cccc(Cl)c2)N(C)C(=O)[C@H](C(C)C)NC(=O)[C@H](C)N(C)C(=O)CSC[C@@H](C(N)=O)NC(=O)[C@H](Cc2ccc(O)cc2)N(C)C(=O)[C@H](Cc2ccccc2)NC(=O)[C@H](CCCNC(=N)N)NC(=O)[C@H](CCCNC(=N)N)NC(=O)[C@H]([C@@H](C)CC)NC1=O [compound 214]

pKd [4]: 7.00 to 9.00
Structure (SMILES): CC[C@H](C)[C@@H]1NC(=O)[C@H](Cc2ccc(OC)cc2)NC(=O)[C@H](Cc2ccc(O)cc2)NC(=O)[C@H](CC(N)=O)NC(=O)[C@H](Cc2c[nH]c3ccccc23)N(C)C(=O)[C@H](C(C)C)NC(=O)[C@H](Cc2cccc(Cl)c2)N(C)C(=O)[C@H](C(C)C)NC(=O)[C@H](C)NC(=O)CSC[C@@H](C(=O)NCCOCCOCCOCCOCCC(N)=O)NC(=O)[C@H](Cc2ccc(O)cc2)N(C)C(=O)[C@H](Cc2ccccc2)NC(=O)[C@@H](CCCNC(=N)N)NC(=O)[C@H](CCCNC(=N)N)NC(=O)[C@H]([C@@H](C)CC)NC1=O [compound 400]

pKd [4]: 7.00 to 9.00
Structure (SMILES): CC[C@H](C)[C@@H]1NC(=O)[C@H](Cc2ccc(OC)cc2)NC(=O)[C@H](Cc2ccc(O)cc2)NC(=O)[C@H](CC(N)=O)NC(=O)[C@H](Cc2c[nH]c3ccccc23)N(C)C(=O)[C@H](C(C)C)NC(=O)[C@H](Cc2cccc(Cl)c2)N(C)C(=O)[C@H](C(C)C)NC(=O)[C@H](C)NC(=O)CSC[C@@H](C(N)=O)NC(=O)[C@H](Cc2ccc(O)cc2)N(C)C(=O)[C@H](CCC(=O)NCCCC[C@@H](NC)C(=O)O)NC(=O)[C@@H](CCCNC(=N)N)NC(=O)[C@H](CCCNC(=N)N)NC(=O)[C@H]([C@@H](C)CC)NC1=O [compound 390]

pKd (SPR, hTfR, class symbols A-D, read-out: KD (column without head, continuation of the table series)): 6.00 to 7.00
Structure (SMILES): CC[C@H](C)[C@@H]1NC(=O)[C@H](Cc2ccc(OCCN)cc2)NC(=O)[C@H](Cc2ccc(O)cc2)NC(=O)[C@H](CC(N)=O)NC(=O)[C@H](Cc2c[nH]c3ccccc23)NC(=O)[C@H](C(C)C)NC(=O)[C@H](Cc2ccccc2)N(C)C(=O)[C@H](C(C)C)NC(=O)[C@H](C)NC(=O)CSC[C@@H](C(N)=O)NC(=O)[C@H](Cc2ccc(O)cc2)N(C)C(=O)[C@H](Cc2ccccc2)NC(=O)[C@@H](CCCNC(=N)N)NC(=O)[C@H](CCCNC(=N)N)NC(=O)[C@H]([C@@H](C)CC)NC1=O [compound 523]

pKd [3]: 7.00 to 9.00
Structure (SMILES): CC[C@H](C)[C@@H]1NC(=O)[C@H](Cc2ccc(OC)cc2)NC(=O)[C@H](Cc2ccc(O)cc2)NC(=O)[C@H](CC(N)=O)NC(=O)[C@H](Cc2c[nH]c3ccccc23)N(C)C(=O)[C@H](C(C)C)NC(=O)[C@H](Cc2cccc(Cl)c2)N(C)C(=O)[C@H](CCC(=O)O)NC(=O)[C@H](C)NC(=O)CSC[C@@H](C(N)=O)NC(=O)[C@H](Cc2ccc(O)cc2)N(C)C(=O)[C@H](Cc2ccccc2)NC(=O)[C@@H](CCCNC(=N)N)NC(=O)[C@H](CCCCN)NC(=O)[C@H]([C@@H](C)CC)NC1=O [compound 228] ({CH2CO}-AE[NMePhe(3-Cl)]V[NMeW]NYY(Me)IIK[dR]F[NMeY]C-NH2; thioether N-15)
